# From US20230332103A1, “Methods and Compositions for Generating Human Forebrain Neural Progenitor Cells and for Maturation Thereof to Parvalbumin+ Interneurons” (Trailhead Biosystems Inc., priority 2021, published 2023)
# Entries after “also recorded” stand apart in the source; their conditions may differ.
# B1: BDNF: brain-derived neurotrophic factor, ligand of BDNFR signaling pathway (protein, UniProt P23560 19-247, looked up)
# Neurotrophic factor BDNF …: APMKEANIRGQGGLAYPGVRTHGTLESVNGPKAGSRGLTSLADTFEHVIEELLDEDQKVRPNEENNKDADLYTSRVMLSSQVPLEPPLLFLLEEYKNYLDAANMSMRVRRHSDPARRGELSVCDSISEWVTAADKKTAVDMSGGTVTVLEKVPVSKGQLKQYFYETKCNPMGYTKEGCRGIDKRHWNSQCRTTQSYVRALTMDSKKRIGWRFIRIDTSCVCTLTIKRGR
# How the values were obtained:
# [1] = test system: cells after termination of stage 4 treatment; assay: HD-DoE 8-factor experiment for stage 5 recipe (JQ1, Indolactam-V, Oleic acid, BDNF, IGF-1, 2-phospho-L-Ascorbic acid, Albumax, MK2206), optimized for PVALB; type: cell-based, human; conditions: for factor contribution on expression of PVALB: important input for maximum expression of PVALB, FIG. 21; for impact on expression of PVALB: model maximized for PVALB / dynamic profile, FIG. 21 and 22
# Source text: To further guide the differentiation of forebrain-committed neural stem cells to PVALB interneuron cells at stage 5, we performed a HD-DoE experiment for 3 days after termination of stage 4 treatment. At this time, we focused on maximum expression of PVALB that was expressed in Parvalbumin (+) interneurons and minimum expression of Somatostatin that is another type of interneurons. This 8-factor experiment included JQ1, Indolactam-V, Oleic acid, BDNF, IGF-1, 2-phospho-L-Ascorbic acid, Albumax, MK2206. […] Using dynamic profile analysis, we modified the model to achieve the maximum expression level of PVALB simultaneously and therefore 2-phospho-L-ascorbic acid, BDNF, IGF1 were included while MK2206, Albumax, and JQ1 are excluded (FIG. 22). Considering the model at different optimization settings for maximum differentiation of cells toward ventral forebrain, the recipe for stage 5 of differentiation included BDNF, IGF-1, 2-phospho-L-ascorbic acid from this HD-Doe experiment.
# [2] = test system: stage 4 neural stem cells; assay: factor criticality analysis of stage 5 recipe; type: cell-based, human; conditions: for effect on expression of somatostatin: FIG. 28; for contribution to expression of PVALB (Parvalbumin): FIG. 28-30
# Experimental: To assess the impact of elimination of each validated factor, we again used dynamic profile analysis and compared the expression level of genes of interest in the absence of each finalized factor while others are present.
# In the stage 5 recipe, each of seven finalized factors were removed while other factors were kept present and expression levels of PVALB and SST were assessed compared to the presence of all seven factors. […] 2-phospho-L-ascorbic acid, BDNF, IGF-1 were included in the stage 5 recipe (FIG. 28). […] Others were also found to increase the expression of somatostatin that was SST interneuron marker. So, they are excluded from the recipe and N2 was included in the stage 5 recipe (FIG. 29). […] Sodium pyruvate was included in the stage 5 recipe (FIG. 30).
# [3] = test system: human pluripotent stem cells; assay: HD-DoE 12-factor experiment for stage 1 recipe, gene expression by quantitative PCR after 3 days; type: cell-based; conditions: for factor contribution on expression of OTX2: model of maximum expression of OTX2
# Source text: This example utilizes a method of High-Dimensional Design of Experiments (HD-DoE), as previously described in Bukys et al. (2020) […] 23:101346. The method employs computerized design geometries to simultaneously test multiple process inputs and offers mathematical modeling of a deep effector/response space. The method allows for finding combinatorial signaling inputs that control a complex process, such as during cell differentiation. It allows testing of multiple plausible critical process parameters, as such parameters impact output responses, such as gene expression. Because gene expression provides hallmark features of the phenotype of, for example, a human cell, the method can be applied to identify, and understand, which signaling pathways control cell fate. In the current example, the HD-DOE method was applied with the intent to find conditions for induction of […] neural progenitor-expressed genes, directly from the pluripotent stem cell state. To develop the recipe for each stage, the impact of agonists and antagonists of multiple signaling pathways (herein called effectors) on the expression of two sets of 53 pre-selected genes, after a 3-day treatment, has been tested and modeled. These effectors are small molecules or proteins that are commonly used during stepwise differentiation of stem cells to specific fates. Choice of the effectors were based on current literature on neural induction in forebrain region of developing brain and differentiation of stem cells to neural progenitors. To test the effectors, experiments with at least 8 factors were designed that can assess the response of cells to 48 or more different combinations of effectors in a range of concentrations. To analyze the models, we focused on expression of genes involved in development and patterning of the anterior neuroectoderm and forebrain including OTX2 (Hoch et al. (2015) Cell Reports 12:482-494), SIX3 (Lagutin et al. (2003) Genes & Development 17:368-379) and FEZF2 (Zhang et al. (2014) Development 141:4794-[…]). At later stages we focused on dorsoventral patterning of telencephalon and gene expressed in ventral forebrain including NKX2-1 and absence of PAX6 which is a dorsal forebrain marker (Stoykova et al. (2000) J. Neurosci. 20:8042-8050). The impact of each effector on gene expression level is defined by a parameter called factor contribution that is calculated for each effector during the modeling. To identify the recipe for stage 1 of differentiation, 96 different combinations of effectors generated using Design-of-Experiments compression through D-optimality were robotically prepared. The effector combinations were prepared in a basal media and were subsequently added to the cells, which were then allowed to differentiate. Three days later RNA extraction was performed, and gene expression was obtained using quantitative PCR analysis. […] Solutions within the tested space could then be explored to address desirability. Optimizing for maximal expression of SIX3 at 3300 and FEZF2 1355 expression values led to robust solutions. This model was derived from testing 12 effectors including AGN193109, LDN193189, CHIR99021, XAV939, IGF2, Purmorphamine, 4-oxo-RA, TTNPB, SR11237, FGF8, PD0325901 and […]. […] The model was also optimized for maximum expression of FEZF2 separately at 3576 expression value to find any additional factors that can boost expression of forebrain genes. […] To find the set of factors that have the potential to optimize all 3 genes in this experiment, a new assessment was done through dynamic profile analysis with focus on maximal expression of OTX2, FEZF2 and SIX3.
# [4] = test system: human pluripotent stem cells; assay: additional HD-DoE experiment for stage 1 (forebrain differentiation from pluripotency), optimized for FEZF2; type: cell-based; conditions: for impact on expression of FEZF2: dynamic profile, FIG. 6; for factor contribution on expression of FEZF2: positive impact, additional stage 1 experiment optimized for FEZF2, FIG. 5
# Experimental: To identify the recipe for stage 1 of differentiation, 96 different combinations of effectors generated using Design-of-Experiments compression through D-optimality were robotically prepared. The effector combinations were prepared in a basal media and were subsequently added to the cells, which were then allowed to differentiate. Three days later RNA extraction was performed, and gene expression was obtained using quantitative PCR analysis. The data were normalized and modeled using partial least squares regression analysis to the effector design, resulting in the generation of gene-specific models, which after model tuning for maximal Q2 predictive power, provided explanation of the effectors ability to control the expression of individual genes, combinatorially, and individually. Solutions within the tested space could then be explored to address desirability.
# To further enhance the conditions for forebrain differentiation from pluripotency, an additional HD-DoE experiment was performed. Additional gene regulatory models were obtained that were used for preparation of the differentiation protocol. The factors in this experiment included LDN193189, PD173074, BLU9931, Purmorphamine, SC79, MK2206, ZM336372, PD0325901, CHIR99021, XAV939, UCLA-GP130, Tofacitinib and GO6983. […] Dynamic profile analysis was also used to assess the interaction between the effectors.
# [5] = test system: forebrain-committed neural stem cells (stage 1 neural stem cells); assay: HD-DoE 12-factor experiment for stage 2 recipe, optimized for NKX2-1; type: cell-based, human; conditions: model maximized for NKX2-1 / dynamic profile, FIG. 7 and 8
# Experimental: To further guide the differentiation of forebrain-committed neural stem cells to ventral forebrain neural stem cells at stage 2, a HD-DoE experiment was performed for 3 days after termination of stage 1 treatment. At this time, we focused on maximum expression of NKX2-1 that is expressed in ventral forebrain region and minimum expression of PAX6 that is expressed in dorsal forebrain region. This 12-factor experiment included LDN193189, BMP7, PD0325901, MK2206, A8301, XAV939, CHIR99021, Purmorphamine, SANT-1, AGN193109, TTNPB and GSI-XX.
# [6] = test system: human pluripotent stem cells; assay: factor criticality analysis (dynamic profile analysis) of stage 1 recipe; type: cell-based; set-up: unit not given here; conditions: other five factors present; for expression level of FEZF2 when the effector is removed: 2000 with all six factors; for expression level of SIX3 when the effector is removed: 3000 with all six factors; for expression level of OTX2 when the effector is removed: 5500 with all six factors
# Experimental: (§1) To assess the impact of the elimination of each validated factor, dynamic profile analysis was used and compared the expression level of genes of interest in absence of each finalized factor while others are present.
# In the stage 1 recipe, each of the six finalized factors were removed individually while the other five factors were present and expression levels of forebrain genes was assessed compared to the presence of all six factors together. The results are summarized in FIG. 11A-B. When LDN193189 was removed, expression levels of FEZF2, OTX2 and SIX3 were decreased drastically from 2000 to 1000, 5500 to 4000 and 3000 to 0, respectively. […] When Purmorphamine was removed, levels of FEZF2 and SIX3 were decreased to 1000 and below 3000, while levels of OTX2 increased to 6500.
# [7] = test system: forebrain-committed neural stem cells (stage 1 neural stem cells); assay: factor criticality analysis (dynamic profile analysis) of stage 2 recipe; type: cell-based, human; conditions: stage 2 recipe, other three factors present; for expression level of PAX6 in the absence of the effector: 0 with all four factors; for expression level of NKX2-2 in the absence of the effector: 100 with all four factors; for expression level of NKX2-1 in the absence of the effector: 5000 with all four factors
# Experimental: as §1
# In the stage 2 recipe, each of the four finalized factors were removed while the other three factors remained present and expression levels of NKX2-1, PAX6 and NKX2-2 were assessed compared to presence of all four factors. The results are summarized in FIG. 13A-B. Absence of PD0325901 reduced the levels of NKX2-1 and NKX2-2 while increasing PAX6 from 5000 to 3200, 100 to 0 and 0 to 5000, respectively. […] Removing XAV939 reduced the levels of NKX2-1 from 5000 to 3000, while increasing both PAX6 and NKX2-2 to 10000 and 200, respectively. Another observation was the interaction between XAV939 and Purmorphamine. In the absence of XAV939, the impact of Purmorphamine on NKX2-1 became negative and, as it is shown in interaction plot of FIG. 14, the level of NKX2-1 is higher when both factors are present.
molecule,measurement,setting,value
O=C1O[C@H]([C@@H](O)CO)C(O)=C1OP(=O)(O)O [2-phospho-L-ascorbic acid],factor contribution on expression of PVALB,[1],15.04
same,impact on expression of PVALB,[1],increase its expression level
same,impact on expression of PVALB,[1]; listed as 2-phospho-L-Ascorbic acid,positive impact
same,effect on expression of somatostatin,[2],did not change
same,contribution to expression of PVALB (Parvalbumin),[2],positive contribution
CC(C)[C@H]1C(=O)N[C@H](CO)Cc2c[nH]c3cccc(c23)N1C [Indolactam-V],impact on expression of PVALB,[1],increase its expression level; also recorded: positive impact
"CCCCCCCC/C=C\CCCCCCCC(=O)OC[C@@H](O)COP(=O)(O)O [O-LPA, 1-Oleoyl lysophosphatidic acid]",contribution to expression of GAD1,[2]; FIG. 31,contribute to the expression
same,contribution to expression of LHX6,[2]; FIG. 31,contribute to the expression
CCCCCCCC/C=C\CCCCCCCC(=O)O [Oleic acid],impact on expression of PVALB,[1],increase its expression level; also recorded: positive impact
O=C(NOC[C@H](O)CO)c1ccc(F)c(F)c1Nc1ccc(I)cc1F [PD0325901],factor contribution on expression of OTX2,[3]; positive impact,low
same,factor contribution on expression of FEZF2,"[3]; positive impact, model optimized for maximum expression of FEZF2",10
same,impact on expression of FEZF2,[4],positive impact
same,factor contribution on expression of FEZF2,[4],15
same,impact on expression of NKX2-1,[5],increase its expression level; also recorded: Positive impact
same,expression level of FEZF2 when the effector is removed,[6],drop
same,expression level of SIX3 when the effector is removed,[6],did not have a significant impact
same,expression level of OTX2 when the effector is removed,[6],did not have a significant impact
same,expression level of PAX6 in the absence of the effector,[7],5000
same,expression level of NKX2-2 in the absence of the effector,[7],0
same,expression level of NKX2-1 in the absence of the effector,[7],3200
Oc1nc(-c2ccc(C(F)(F)F)cc2)nc2c1CSCC2 [XAV939],impact on expression of OTX2,"[3]; dynamic profile analysis, FIG. 4",positive impact
same,factor contribution on expression of OTX2,[3]; positive impact,low
same,factor contribution on expression of SIX3,"[3]; positive impact, model optimized for maximal expression of SIX3, 3-day treatment",5
same,impact on expression of FEZF2,[4],positive impact
same,factor contribution on expression of FEZF2,[4],12
same,impact on expression of NKX2-1,[5],increase its expression level; also recorded: Positive impact
same,expression level of FEZF2 when the effector is removed,[6],1700
same,expression level of SIX3 when the effector is removed,[6],1000
same,expression level of OTX2 when the effector is removed,[6],5000
same,expression level of PAX6 in the absence of the effector,[7],10000
same,expression level of NKX2-2 in the absence of the effector,[7],200
same,expression level of NKX2-1 in the absence of the effector,[7],3000
B1,factor contribution on expression of PVALB,[1],14.6
same,impact on expression of PVALB,[1],increase its expression level; also recorded: positive impact
same,effect on expression of somatostatin,[2],did not change
same,contribution to expression of PVALB (Parvalbumin),[2],positive contribution
